Reference: ChEMBL document CHEMBL1201862, “PubChem BioAssay data set” (2004)
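A five-concentration, 48-hour dose response in 96-well plates underlies each endpoint, interpolated linearly between surrounding concentrations. The concentration for 50% growth inhibition is given as GI50.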 Calls of active or inactive are those of the source. Cut-off read from the data, not from the text of the source: active = GI50 up to about 1.1 µM and inactive = higher.

Experiments:
Assay in all cases: NCI tumour cell line growth inhibition, 48 h
[1] = system: SK-MEL-5
[2] = system: TK-10
[3] = system: IGROV-1
[4] = system: CCRF-CEM
[5] = system: MDA-MB-231
[6] = system: MCF7
[7] = system: NCI-H522
[8] = system: HCC 2998
[9] = system: SF-295
[10] = system: HL-60
[11] = system: DU-145
[12] = system: OVCAR-3
[13] = system: UACC-257
[14] = system: OVCAR-8
[15] = system: SF-268
[16] = system: ACHN
[17] = system: HT-29
[18] = system: SNB-19
[19] = system: NCI-H460

COc1c(-c2cccs2)oc2c(CC(=O)O)cccc2c1=O
GI50 [1]: > 100 µM (inactive) | GI50 [2]: > 100 µM (inactive) | GI50 [3]: > 100 µM (inactive) | GI50 [4]: > 100 µM (inactive) | GI50 [5]: > 100 µM (inactive) | GI50 [6]: > 100 µM (inactive) | GI50 [7]: > 100 µM (inactive) | GI50 [8]: > 100 µM (inactive) | GI50 [9]: > 100 µM (inactive) | GI50 [10]: 0.0702 µM (active) | GI50 [11]: > 100 µM (inactive) | GI50 [12]: > 100 µM (inactive) | GI50 [13]: > 100 µM (inactive)

COc1ccc(/C=C2/CSC/C(=C/c3ccc(OC)c(OC)c3)C2=O)cc1OC
GI50 [1]: 2.44 µM (inactive) | GI50 [14]: 0.664 µM (active) | GI50 [15]: 1.99 µM (inactive) | GI50 [2]: 3.9 µM (inactive) | GI50 [16]: 2.31 µM (inactive) | GI50 [3]: 2.28 µM (inactive) | GI50 [17]: 1.09 µM (active) | GI50 [4]: 0.849 µM (active) | GI50 [5]: 3.28 µM (inactive) | GI50 [6]: 2.22 µM (inactive) | GI50 [7]: 2.26 µM (inactive) | GI50 [18]: 3.5 µM (inactive) | GI50 [8]: 2.57 µM (inactive) | GI50 [9]: 2.44 µM (inactive) | GI50 [10]: 1.03 µM (active) | GI50 [11]: 2.88 µM (inactive) | GI50 [12]: 2 µM (inactive) | GI50 [19]: 2.23 µM (inactive) | GI50 [13]: 4.11 µM (inactive)

O=C1C=C(O)c2nc(O)ccc2C1=O
GI50 [1]: > 100 µM (inactive) | GI50 [14]: > 100 µM (inactive) | GI50 [15]: > 100 µM (inactive) | GI50 [2]: > 100 µM (inactive) | GI50 [16]: > 100 µM (inactive) | GI50 [3]: > 100 µM (inactive) | GI50 [17]: > 100 µM (inactive) | GI50 [4]: > 100 µM (inactive) | GI50 [7]: > 100 µM (inactive) | GI50 [18]: > 100 µM (inactive) | GI50 [8]: > 100 µM (inactive) | GI50 [9]: > 100 µM (inactive) | GI50 [10]: > 100 µM (inactive) | GI50 [12]: > 100 µM (inactive) | GI50 [19]: > 100 µM (inactive) | GI50 [13]: > 100 µM (inactive)

O=C1C[C@H](c2ccc(O)c(O)c2)Oc2cc(O)cc(O)c21
GI50 [1]: > 100 µM (inactive) | GI50 [14]: > 100 µM (inactive) | GI50 [15]: 63.5 µM (inactive) | GI50 [2]: 73.1 µM (inactive) | GI50 [16]: 65.8 µM (inactive) | GI50 [3]: > 100 µM (inactive) | GI50 [17]: > 100 µM (inactive) | GI50 [4]: 31.2 µM (inactive) | GI50 [7]: 11.6 µM (inactive) | GI50 [18]: > 100 µM (inactive) | GI50 [8]: > 100 µM (inactive) | GI50 [9]: > 100 µM (inactive) | GI50 [10]: 30.6 µM (inactive) | GI50 [12]: > 100 µM (inactive) | GI50 [19]: 72.4 µM (inactive) | GI50 [13]: > 100 µM (inactive)

CCOC(=O)C1=CN=C2C(=O)N(c3ccccc3)N(C)C2(C)C1=N (stereo not given)
GI50 [1]: > 100 µM (inactive) | GI50 [14]: > 100 µM (inactive) | GI50 [2]: > 100 µM (inactive) | GI50 [16]: > 100 µM (inactive) | GI50 [3]: > 100 µM (inactive) | GI50 [4]: > 100 µM (inactive) | GI50 [5]: > 100 µM (inactive) | GI50 [6]: > 100 µM (inactive) | GI50 [7]: > 100 µM (inactive) | GI50 [18]: > 100 µM (inactive) | GI50 [8]: > 100 µM (inactive) | GI50 [9]: > 100 µM (inactive) | GI50 [10]: > 100 µM (inactive) | GI50 [11]: > 100 µM (inactive) | GI50 [12]: > 100 µM (inactive) | GI50 [19]: > 100 µM (inactive) | GI50 [13]: > 100 µM (inactive)

COc1ccc2c(c1)CC1COc3cc(OC)ccc3C1O2 (stereo not given)
GI50 [1]: 72.3 µM (inactive) | GI50 [14]: 71.8 µM (inactive) | GI50 [15]: 52.5 µM (inactive) | GI50 [2]: > 100 µM (inactive) | GI50 [3]: > 100 µM (inactive) | GI50 [17]: 65.3 µM (inactive) | GI50 [4]: > 100 µM (inactive) | GI50 [5]: > 100 µM (inactive) | GI50 [6]: > 100 µM (inactive) | GI50 [7]: 55 µM (inactive) | GI50 [8]: > 100 µM (inactive) | GI50 [9]: 77.3 µM (inactive) | GI50 [11]: > 100 µM (inactive) | GI50 [12]: > 100 µM (inactive) | GI50 [13]: > 100 µM (inactive)

N#CC(/C(CCCC(=O)Nc1cccc([N+](=O)[O-])c1)=N/NC(=O)c1cc2ccccc2cc1O)c1ccccc1 (stereo not given)
GI50 [1]: 21.2 µM (inactive) | GI50 [14]: 17.5 µM (inactive) | GI50 [15]: 48.1 µM (inactive) | GI50 [2]: 31.1 µM (inactive) | GI50 [16]: 34.3 µM (inactive) | GI50 [3]: 17.1 µM (inactive) | GI50 [17]: 36.4 µM (inactive) | GI50 [4]: 6.1 µM (inactive) | GI50 [7]: 23.1 µM (inactive) | GI50 [18]: 28.8 µM (inactive) | GI50 [8]: 36.6 µM (inactive) | GI50 [9]: 39.1 µM (inactive) | GI50 [10]: 4.79 µM (inactive) | GI50 [12]: 25.8 µM (inactive) | GI50 [19]: 21.2 µM (inactive) | GI50 [13]: 24.4 µM (inactive)

C1CSC[C@H]2COC[C@@H](CSCCS1)S2
GI50 [1]: > 100 µM (inactive) | GI50 [14]: > 100 µM (inactive) | GI50 [15]: > 100 µM (inactive) | GI50 [2]: 50.4 µM (inactive) | GI50 [17]: > 100 µM (inactive) | GI50 [4]: > 100 µM (inactive) | GI50 [5]: > 100 µM (inactive) | GI50 [6]: > 100 µM (inactive) | GI50 [7]: > 100 µM (inactive) | GI50 [18]: > 100 µM (inactive) | GI50 [8]: > 100 µM (inactive) | GI50 [9]: > 100 µM (inactive) | GI50 [10]: > 100 µM (inactive) | GI50 [11]: > 100 µM (inactive) | GI50 [12]: > 100 µM (inactive) | GI50 [19]: > 100 µM (inactive) | GI50 [13]: > 100 µM (inactive)

Cn1nc(C(=O)N2CC(CCl)c3c2cc([N+](=O)[O-])c2ccccc32)cc1NC(=O)Nc1cc(C(=O)N2CC(CCl)c3c2cc([N+](=O)[O-])c2ccccc32)nn1C (stereo not given)
GI50 [1]: > 100 µM (inactive) | GI50 [15]: 48.5 µM (inactive) | GI50 [2]: > 100 µM (inactive) | GI50 [16]: > 100 µM (inactive) | GI50 [5]: > 100 µM (inactive) | GI50 [6]: > 100 µM (inactive) | GI50 [7]: > 100 µM (inactive) | GI50 [18]: 77.4 µM (inactive) | GI50 [8]: > 100 µM (inactive) | GI50 [9]: 94.8 µM (inactive) | GI50 [11]: > 100 µM (inactive) | GI50 [12]: > 100 µM (inactive) | GI50 [19]: > 100 µM (inactive) | GI50 [13]: > 100 µM (inactive)

C#C[C@@]1(O)CCCC2=CC(=O)C[C@]21C
GI50 [1]: > 100 µM (inactive) | GI50 [14]: > 100 µM (inactive) | GI50 [15]: > 100 µM (inactive) | GI50 [2]: > 100 µM (inactive) | GI50 [16]: > 100 µM (inactive) | GI50 [3]: > 100 µM (inactive) | GI50 [17]: > 100 µM (inactive) | GI50 [4]: > 100 µM (inactive) | GI50 [7]: > 100 µM (inactive) | GI50 [18]: > 100 µM (inactive) | GI50 [8]: > 100 µM (inactive) | GI50 [9]: > 100 µM (inactive) | GI50 [10]: > 100 µM (inactive) | GI50 [12]: > 100 µM (inactive) | GI50 [19]: > 100 µM (inactive) | GI50 [13]: > 100 µM (inactive)

C/C=C1\C(=O)O[C@H]2C/C(C)=C/CC/C(C)=C/CC[C@@]3(C)O[C@@H]3C[C@@H]12
GI50 [1]: > 100 µM (inactive) | GI50 [14]: > 100 µM (inactive) | GI50 [15]: > 100 µM (inactive) | GI50 [2]: > 100 µM (inactive) | GI50 [16]: > 100 µM (inactive) | GI50 [3]: 61.1 µM (inactive) | GI50 [17]: > 100 µM (inactive) | GI50 [4]: 35 µM (inactive) | GI50 [5]: > 100 µM (inactive) | GI50 [6]: > 100 µM (inactive) | GI50 [18]: 36.8 µM (inactive) | GI50 [8]: > 100 µM (inactive) | GI50 [9]: > 100 µM (inactive) | GI50 [10]: 52 µM (inactive) | GI50 [11]: > 100 µM (inactive) | GI50 [12]: > 100 µM (inactive) | GI50 [19]: 46.1 µM (inactive) | GI50 [13]: > 100 µM (inactive)

COc1cc(OC)cc(-c2nc3cc(F)ccc3s2)c1
GI50 [1]: > 100 µM (inactive) | GI50 [14]: 30.8 µM (inactive) | GI50 [15]: 13.8 µM (inactive) | GI50 [2]: 15.8 µM (inactive) | GI50 [16]: 14.5 µM (inactive) | GI50 [3]: 12.3 µM (inactive) | GI50 [17]: > 100 µM (inactive) | GI50 [4]: > 100 µM (inactive) | GI50 [5]: 13.6 µM (inactive) | GI50 [6]: 1.83 µM (inactive) | GI50 [7]: 19 µM (inactive) | GI50 [18]: 16.9 µM (inactive) | GI50 [8]: < 0.01 µM (active) | GI50 [9]: 10.6 µM (inactive) | GI50 [11]: 26.1 µM (inactive) | GI50 [12]: 26.2 µM (inactive) | GI50 [19]: 21.8 µM (inactive) | GI50 [13]: > 100 µM (inactive)
